Test results as given in US11993574B2, “Pyrazole and imidazole compounds for inhibition of IL-17 and RORgamma” (REATA PHARMACEUTICALS, INC., priority 2018, dated 2024).

How the values were obtained:
Type in all cases: cell-based
IL-17A = experiment: IL-17 release from differentiated primary human T-cells (IL-17A HTRF assay); conditions: primary human CD4+ T cells differentiated into Th17 cells, 45-hour incubation, IL-17A in supernatant; read-out: hIL17 IC50
Experimental: C. IL-17 Release from Differentiated Primary Human T-Cells and Cell Viability
Primary human cryopreserved CD4+ T Cells (Lonza) were thawed according to the manufacturer's recommendations and plated either in Lymphocyte Growth Medium-3 (LGM-3) or X-VIVO 20 media (Lonza) in 96-well tissue culture plates at a density of ˜2×10^5 cells per well, and allowed to recover for approximately 4 hours at 37° C. with 5% CO2 in a humidified atmosphere. After the recovery step, DMSO (vehicle) or test compound at doses ranging from 2 to 500 nM or 4 to 1000 nM in a three-fold dilution series was added to the cells. Three replicate wells were tested for each treatment condition. Final DMSO concentration in each well was 0.1%. Immediately after treatment, CD4+ T cells were activated by adding Dynabeads Human T-Activator CD3/CD28 (Life Technologies; bead-to-cell ratio of 1:2.5) and differentiated into Th17 cells by adding a mixture of the following cytokines: transforming growth factor-β (TGF-β, 5 ng/mL), IL-6 (20 ng/mL), IL-23 (20 ng/mL), and IL-1β (10 ng/mL). Undifferentiated control cells received only cytokine IL-2 (50 ng/mL). All human recombinant cytokines were purchased from R&D Systems. Following a 45-hour incubation at 37° C. with 5% CO2 in a humidified atmosphere, the plates were centrifuged for 3 minutes at 250×g, and half of the supernatant was transferred to anew plate to be used in the IL-17A assay (see below). Cell viability was assessed in the original plate using the CyQuant Direct Assay (Life Technologies). CyQuant reagent (an amount equal to 10% of remaining media volume) was added to the wells, and the plates were then incubated at 37° C. for 75 min. Fluorescence was read on a SpectraMax M2e spectrophotometer at 480 nm (excitation) and 535 nm (emission) wavelengths. CyQuant values from test compound samples were normalized to those from DMSO-treated samples. The concentration of IL-17A in the supernatant was measured using the Homogeneous Time-Resolved Fluorescence (HTRF) assay (Cisbio Bioassays) according to the manufacturer's protocol. The assay was performed at room temperature in low volume, solid white 384-well plates (Greiner Bio-One). Samples and standards (serially-diluted human recombinant IL-17A (0 to 5,000 pg/mL concentration range; Cisbio Bioassays) were incubated with the anti-human IL-17A antibody conjugates (the HTRF donor and acceptor pair) for 16 hours and fluorescence was measured using a Pherastar FS microplate reader (BMG Labtech) in the HTRF mode (excitation at 337 nm and emission at 665 nm and 620 nm). IL-17A levels were assessed in duplicate aliquots of supernatant from each well resulting in a total of six readings per test condition. The 665 nm/620 nm signal ratio was calculated and the concentration of IL-17A in each sample was determined by interpolation from the standard curve. The amount of IL-17A from test compound treated samples were normalized to that of the vehicle-treated samples, set to 100%. Data were analyzed using GraphPad Prism (GraphPad Software, La Jolla California USA). Concentrations of test compound were transformed by taking the logarithm of each concentration used. The IC50 values for compound-mediated reduction in IL-17A levels and cell viability were determined by non-linear regression analysis using the log(inhibitor) vs. normalized response with variable slope equation. Inhibition that is closely correlated with reduced viability is considered to be non-specific.

[1] = target: T1, Human RAR-related Orphan Receptor Gamma (RORγ) (Homo sapiens, UniProt P51449); experiment: RORγ assay (GAL4-RORγ hybrid luciferase reporter, Indigo Biosciences); conditions: inverse-agonist activity, GAL4-RORγ reporter cells, 23 hours
T1 sequence (P51449 269-508 limits assumed): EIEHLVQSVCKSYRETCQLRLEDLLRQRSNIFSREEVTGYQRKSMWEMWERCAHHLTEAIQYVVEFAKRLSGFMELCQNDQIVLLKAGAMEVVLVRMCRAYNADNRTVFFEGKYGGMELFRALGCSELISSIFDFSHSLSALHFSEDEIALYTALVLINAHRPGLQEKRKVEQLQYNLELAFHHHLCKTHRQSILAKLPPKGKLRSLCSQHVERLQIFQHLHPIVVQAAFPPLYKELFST
From the text: B. RORγ Assay and Cell Viability
The RORγ assay system was purchased from Indigo Biosciences. This nuclear receptor assay utilizes a human cell line that has been engineered to express a hybrid form of the Human RAR-related Orphan Receptor Gamma (RORγ) at high levels. The N-terminal DNA binding domain (DBD) of the native RORγ receptor was substituted with the yeast GAL4-DBD to generate the GAL4-RORγ hybrid nuclear receptor. The reporter cell line is transfected with a plasmid that encodes the beetle luciferase gene under the control of the GAL4 upstream activating sequence (UAS). GAL4 binds to the UAS and increases transcription of downstream target genes. The GAL4-RORγ hybrid is constitutively active; therefore, the principle application of this reporter assay system is to screen test compounds to quantify inverse-agonist activities against human RORγ. Because the ligand binding domain (LBD) of RORγ is identical to the LBD of RORγt, this assay is an accurate surrogate for evaluating activity of experimental ligands against RORγt. To assess the RORγ inverse-agonist activity of the test compounds, reporter cells were plated in white 96-well plates in triplicate and were treated with DMSO (vehicle) or test compound (concentration ranges of 7.8-2000 nM) at 37° C. with 5% CO2 in a humidified atmosphere for 23 hours. After this incubation, luciferin was added to the wells and luciferase activity was determined by measuring the luminescence signal using a BMG Pherastar microplate reader. Viability was determined using the Live Cell Multiplex Assay (Indigo Biosciences). Values from test compound samples were normalized to those from DMSO-treated samples. Data were analyzed using GraphPad Prism version 6.00 for Windows (GraphPad Software, La Jolla Calif. USA). A non-linear regression analysis with log (inhibitor) vs. normalized response using a variable slope was applied to fit the data and determine the IC50 values for inhibition of RORγ and cell viability. Inhibition that is closely correlated with reduced viability is considered to be non-specific.

[2] = test system: Nrf2 transcription factor; experiment: AREc32 luciferase reporter assay; conditions: Homo sapiens; AREc32 cells, 19 hours; concentration required to increase GST ARE luciferase reporter activity by 2-fold; read-out: NRF2 ARE 2-Fold (EC2×)
From the text: A. AREc32 Luciferase Reporter Assay
The AREc32 luciferase reporter assay allows for quantitative assessment of the endogenous activity of the Nrt2 transcription factor in cultured mammalian cells. AREc32 cells are derived from MCF-7 human breast carcinoma cells that were stably transfected with a reporter construct that contains the firefly luciferase gene located downstream of eight copies of the rat GSTA2 antioxidant response element (ARE) sequence (Wang et al., 2006; Concept Life Sciences Integrated Discovery and Development Services Ltd (CLSIDDS)). Active Nrf2 binds to the ARE sequences and increases expression of the firefly luciferase gene. To assess the Nrf2-activating potential of the test compounds, AREc32 cells were plated in black […] plates at a density of 20,000 cells per well in triplicate in DMEM+10% FBS+0.8 mg/mL Geneticin and incubated at 37° C. with 5% CO2 in a humidified atmosphere. The next day, cells were treated with DMSO (vehicle) or test compound (concentration ranges of 0.4-200 nM or 3.9-2000 nM) for 19 hours. Luciferase activity was determined using the ONE-Glo Luciferase assay (Promega). The luminescence signal was measured on a BMG Pherastar microplate reader. The mean luminescence value from test compound-treated wells was normalized to that from DMSO-treated wells and was represented as fold-induction. Data were analyzed using GraphPad Prism version 6.00 for Windows, GraphPad Software, La Jolla Calif. USA. A non-linear regression curve with log (agonist) vs. response using a variable slope was used to fit the data. Where applicable, a maximum threshold value of 50-fold over DMSO was set. EC2× values were interpolated from the curve. EC2× corresponds to the concentration of test compound required to increase GST ARE Luciferase reporter activity by 2-fold.

Compound: C[C@H]1C(=O)C(C#N)=C[C@@]2(C)c3nn(C4CCCCC4)c(-c4ccccc4)c3CC[C@H]12 [T1]
- IC50 (IL-17A): 0.065 µM
- IC50 [1]: 0.174 µM
- EC (2-fold) [2]: 1.45 µM

Compound: Cc1cc(-c2ccc(-n3nc(-c4noc(C)n4)c4c3[C@]3(C)C=C(C#N)C(=O)[C@H](C)[C@H]3CC4)cc2)cnn1 [T110]
- IC50 (IL-17A): 0.126 µM
- IC50 [1]: 0.193 µM
- EC (2-fold) [2]: 1.31 µM

Compound: Cc1ccc(-n2nc3c(c2-c2ccccc2)CC[C@@H]2[C@@H](C)C(=O)C(C#N)=C[C@@]32C)cc1 [T118]
- IC50 (IL-17A): 0.158 µM
- IC50 [1]: 0.122 µM
- EC (2-fold) [2]: 0.635 µM

Compound: CC(C)c1cccc(-c2nn(-c3ccc(-c4ccccc4)cc3)c3c2CC[C@@H]2[C@@H](C)C(=O)C(C#N)=C[C@@]32C)c1 [T71]
- IC50 (IL-17A): 0.009 µM
- IC50 [1]: 0.294 µM
- EC (2-fold) [2]: 0.257 µM

Compound: C[C@H]1C(=O)C(C#N)=C[C@@]2(C)c3c(c(-c4ccncn4)nn3-c3ccc(-c4ccccc4)cc3)CC[C@H]12 [T48]
- IC50 (IL-17A): 0.03 µM
- IC50 [1]: 0.045 µM
- EC (2-fold) [2]: 0.187 µM

Compound: COc1ccc(-c2ccc(-n3nc(-c4ccccc4)c4c3[C@]3(C)C=C(C#N)C(=O)[C@H](C)[C@H]3CC4)cc2)cc1 [T46]
- IC50 (IL-17A): 0.02 µM
- IC50 [1]: 0.065 µM
- EC (2-fold) [2]: 0.219 µM

Compound: C[C@H]1C(=O)C(C#N)=C[C@@]2(C)c3c(c(-c4ccccc4)nn3-c3ccncc3)CC[C@H]12 [T7]
- IC50 (IL-17A): 0.17 µM
- IC50 [1]: 0.158 µM
- EC (2-fold) [2]: 0.265 µM

Compound: C[C@H]1C(=O)C(C#N)=C[C@@]2(C)c3c(c(N(C)C4CCC4)nn3-c3ccc(-c4ccccc4)cc3)CC[C@H]12 [T80]
- IC50 (IL-17A): 0.017 µM
- IC50 [1]: 0.071 µM
- EC (2-fold) [2]: 0.347 µM

Compound: Cc1ccccc1-c1nn(-c2ccc(-c3ccccc3)cc2)c2c1CC[C@@H]1[C@@H](C)C(=O)C(C#N)=C[C@@]21C [T72]
- IC50 (IL-17A): 0.01 µM
- IC50 [1]: 0.138 µM
- EC (2-fold) [2]: 0.205 µM

Compound: C[C@H]1C(=O)C(C#N)=C[C@@]2(C)c3c(c(-c4ccc(F)cc4)nn3-c3ccc(-c4ccccc4)cc3)CC[C@H]12 [T65]
- IC50 (IL-17A): 0.012 µM
- IC50 [1]: 0.077 µM
- EC (2-fold) [2]: 0.201 µM

Compound: Cc1noc(-c2ccc(-n3nc(-c4cccnc4)c4c3[C@]3(C)C=C(C#N)C(=O)[C@H](C)[C@H]3CC4)cc2)n1 [T107]
- IC50 (IL-17A): 0.087 µM
- IC50 [1]: 0.112 µM
- EC (2-fold) [2]: 0.505 µM

Compound: C[C@H]1C(=O)C(C#N)=C[C@@]2(C)c3nc(-c4cccc(-c5cnn(C)c5)c4)n(-c4cccc(F)c4)c3CC[C@H]12 [T149]
- IC50 (IL-17A): 0.129 µM
- IC50 [1]: 0.159 µM
- EC (2-fold) [2]: 0.687 µM

Compound: Cc1nc(-c2ccc(-n3nc(-c4ccc(F)cc4)c4c3[C@]3(C)C=C(C#N)C(=O)[C@H](C)[C@H]3CC4)cc2)no1 [T182]
- IC50 (IL-17A): 0.032 µM
- IC50 [1]: 0.096 µM
- EC (2-fold) [2]: 0.249 µM

Compound: Cc1nc2c(n1-c1cccc(F)c1)CC[C@@H]1[C@@H](C)C(=O)C(C#N)=C[C@@]21C [T133]
- IC50 (IL-17A): 0.247 µM
- IC50 [1]: 0.225 µM
- EC (2-fold) [2]: 0.767 µM

Compound: C[C@H]1C(=O)C(C#N)=C[C@@]2(C)c3nn(Cc4ccccc4)c(-c4ccccc4)c3CC[C@H]12 [T4]
- IC50 (IL-17A): 0.223 µM
- IC50 [1]: 0.14 µM
- EC (2-fold) [2]: 0.914 µM

Compound: C[C@H]1C(=O)C(C#N)=C[C@@]2(C)c3nn(-c4ccc(Cl)cc4)c(-c4ccccc4)c3CC[C@H]12 [T114]
- IC50 (IL-17A): 0.507 µM
- IC50 [1]: 0.106 µM
- EC (2-fold) [2]: 0.894 µM

Compound: C[C@H]1C(=O)C(C#N)=C[C@@]2(C)c3c(c(-c4ccccc4F)nn3-c3nc4ccc(Cl)cc4s3)CC[C@H]12 [T89]
- IC50 (IL-17A): 0.013 µM
- IC50 [1]: 0.251 µM
- EC (2-fold) [2]: 0.482 µM

Compound: C[C@H]1C(=O)C(C#N)=C[C@@]2(C)c3nn(-c4cccc(-c5ccccc5)c4)c(-c4ccncn4)c3CC[C@H]12 [T121]
- IC50 (IL-17A): 0.085 µM
- IC50 [1]: 0.242 µM
- EC (2-fold) [2]: 1.07 µM

Compound: Cc1noc(-c2nn(-c3ccc(-c4cccnc4)cc3)c3c2CC[C@@H]2[C@@H](C)C(=O)C(C#N)=C[C@@]32C)n1 [T109]
- IC50 (IL-17A): 0.163 µM
- IC50 [1]: 0.089 µM
- EC (2-fold) [2]: 0.543 µM

Compound: C[C@H]1C(=O)C(C#N)=C[C@@]2(C)c3nc(-c4ccnc5ccccc45)n(-c4cccnc4)c3CC[C@H]12 [T154]
- IC50 (IL-17A): 0.415 µM
- IC50 [1]: 0.572 µM
- EC (2-fold) [2]: 1.97 µM
